The source of these data is a melting point compilation (Tetko et al.; mined from patent text by program, amines drawn as free bases though some values may be those of a salt).

For `Cc1cc(COc2ccc(S(=O)(=O)NC[C@@H](C(=O)NO)N3CCOCC3)cc2)c2ccccc2n1`, the melting point came out at 138 °C.

`O=C(O)CNC(=O)[C@H]1CC[C@H](C(=O)N2CCN(C3CCNCC3)CC2)CC1` showed a melting point of 260 to 270 °C.

`C[Si](C)(C)C#Cc1ccc2c(c1)C(c1ccccc1)=NCc1c(C(=O)OCC(F)(F)F)ncn1-2` registered a melting point of 107 to 110 °C.

As for `Cc1nc(Cl)c2c(c1O)COC2(C)c1ccccc1` (stereo not drawn), the melting point was found to be 246 °C.

`CC(C)CCOCC(O)C(CC(C)C)NC(=O)C(Cc1c[nH]cn1)NC(=O)C(CC(=O)NCCc1ccccc1)Cc1cccc2ccccc12` (mixture of isomers) came in with a melting point of 73 to 76 °C.

The compound `CCOC(=O)c1ccc(CCN(C)CCCC(C#N)(C(=O)OCC)c2ccc(OC)c(OC)c2)cc1` (stereo not drawn) returned a melting point of 83 to 84 °C.

For `Oc1cc(CCl)ncn1`, the melting point is 164 to 166 °C.

In the case of `Cc1cc(N)nc(CCc2nc3cc(-c4ccccc4)cnc3[nH]2)c1`, the melting point came to 230 °C.

As for `CCCN(CCC)CC(=O)OC1CC2(C)C(C#N)CCC2C2CCC3CC(O)CCC3(C)C12` (stereo not drawn), the melting point fell in the range of 114 to 116 °C.

Consider `Nc1ccc(S(=O)(=O)Oc2ccccc2)cc1[N+](=O)[O-]`, for which the melting point came out at 104 °C.

Consider `CCCc1c(C(=O)C(C)C)c2ccc(C(N)=O)cc2n1C(=O)c1ccccc1Cl`, for which the melting point is 125 to 126 °C.

With `COCCOc1ccc(/C=C/C(=O)O)c(Oc2ncc(Br)s2)c1`, the melting point fell in the range of 144 to 145 °C.

In turn, `CC[Si](CC)(CC)OC1CCCc2cnc3ccc(OCc4ccccc4[N+](=O)[O-])cc3c21` (stereo not drawn) gave a melting point of 110 to 111 °C.

With `CCOC(=O)c1ccc2cc(-c3cc4ccccc4o3)ccn2c1=O`, the melting point was in the range of 195 to 197 °C.

Compound `COC(=O)c1cnc(C)n1C` displayed a melting point of 38 to 40 °C.

Take `Cc1cc(C(=O)O)ccc1N1CCN(C(=O)OC(C)(C)C)CC1`: the melting point fell in the range of 175 to 179 °C.

`C=C(C)C(=O)OCc1ccc(SC)cc1` yielded a melting point of 41 °C.

In turn, `CCOC(CC)c1ccc(Cl)c2nc3n(c12)CCCN3c1ccc(Cl)cc1Cl` (stereo not drawn) had a melting point of 108 to 110 °C.

`CCCc1nc2c(N)nc3cc(Oc4cccc([N+](=O)[O-])c4)ccc3c2n1CC(C)C` gave a melting point of 198 to 200 °C.

For the compound `N#Cc1cc(C(F)(F)F)ccc1Oc1ccc([N+](=O)[O-])c(C(=O)O)c1`, the melting point was in the range of 190 to 192 °C.

Compound `C[C@H](NC(=O)c1cc(Cl)c(Cl)cc1C(=O)O)C(=O)N1CCC[C@H]1C(=O)O` came in with a melting point of 134 to 137 °C.

`CN(C)S(=O)(=O)c1cc(-c2ccccc2)ccc1S(N)(=O)=O` registered a melting point of 197 to 200 °C.

`Cc1[nH]c(Cc2ccccc2)nc1C=O` displayed a melting point of 171 to 173 °C.

With `COc1ccc(CCN(C)CCCOc2ccc(NC(=O)c3cccc4c(=O)c5ccccc5[nH]c34)cc2)cc1`, the melting point worked out at 160 °C.

`CCc1noc(CC(=O)N(C)c2ccccc2)n1` displayed a melting point of 53 °C.

The compound `CC1(C)Oc2ccccc2-n2cccc21` had a melting point of 38 °C.

`c1cncc(-c2cccn3cnnc23)c1` had a melting point of 186 to 189 °C.

Take `CC(C)(C)c1nc(C=Cc2cccnc2)nc(C(C)(C)C)c1O`: the melting point lay within 150 to 151 °C.

Take `CC(C)(C)OC(=O)N1Cc2ccccc2CN1CC(O)C(Cc1ccccc1)NC(=O)OCc1ccccc1` (stereo not drawn): the melting point was in the range of 68 to 71 °C.

On to `COC(=O)Cc1cn(Cc2ccccc2)nc1OCCCc1cc(O)nn1Cc1ccc(Cl)cc1Cl`, for which the melting point fell in the range of 106 to 107 °C.

The compound `COc1nc(OC)nc(SC(C(=O)O)C2CCCC2)n1` (stereo not drawn) displayed a melting point of 106 to 110 °C.

Compound `c1ccc(Cc2ncc(-c3ccncc3)s2)cc1` yielded a melting point of 46 to 47 °C.

As for `CCOC(=O)Nc1cc(Oc2ccc3ccccc3c2)c(C#N)cc1F`, the melting point stood at 132 °C.

In turn, `O=C(O)C1SC(c2ccccc2)=NN1C(=O)CCS` (stereo not drawn) showed a melting point of 145 to 146 °C.

With `Oc1cccc(O)c1CCC(F)(F)F`, the melting point is 82 to 84 °C.

In turn, `Cn1c2ccccc2c2nc3c(CO)cccc3nc21` returned a melting point of 191 to 194 °C.

Consider `CC(C)COc1ccc(-c2nc3cccc(O)c3s2)cc1C#N`, for which the melting point lay within 200 to 202 °C.

For the compound `CS(=O)(=O)Nc1cc(-c2ccc(S(C)(=O)=O)cc2)c(-c2ccc(F)cc2)s1`, the melting point was 87 to 90 °C.

`CNC(=O)Nc1snc(OC(C)C)c1C#N` registered a melting point of 238 °C.

`O=C(O)c1cc(OCc2ccccc2)c(-c2ccccc2)c([N+](=O)[O-])c1` showed a melting point of 188 to 190 °C.

As for `O=C(O)c1cccnc1Oc1cccc(Cl)c1`, the melting point was 161 to 164 °C.

As for `COc1ccc2cc3c(c(-c4ccc(F)cc4)c2c1)CNC3=O`, the melting point was in the range of 282 to 284 °C.

With `NC(=O)c1c(Br)cc(Br)c(CCC(=O)O)c1Br`, the melting point came out at 197 °C.

On to `Fc1cccc(Cl)c1-c1nc(F)n(-c2ccccc2C(F)(F)F)n1`, for which the melting point is 68 to 70 °C.

Take `CSC[C@H](C)NC(=O)c1c(Cl)cccc1C(=O)Nc1ccc(Cn2nc(C(F)(F)F)cc2C(F)(F)F)nc1C`: the melting point was found to be 92 °C.

The compound `CC(C)(C)N[C@@H]1Cc2cccc(O)c2C[C@H]1O` (relative stereo) registered a melting point of 97 to 102 °C.

Compound `COC(=O)c1ccc(C(O)=CC(=O)c2cc([Si](C)(C)C)ccc2O)cc1` returned a melting point of 130 to 131 °C.

Take `CC(C)CN1C(=O)COc2cc(F)c([N+](=O)[O-])cc21`: the melting point was 108 to 110 °C.

Compound `CC1(CO)Cc2ccccc2C1(C)C` (stereo not drawn) displayed a melting point of 48 to 50 °C.

Turning to `COC(=O)Cn1c(C)cc(O)c([N+](=O)[O-])c1=O`, the melting point came to 187 °C.

On to `CCC(Oc1ccc2ccccc2c1)C(=O)OC1CC(O)C=C2C=CC(C)C(CCC3CC(O)CC(=O)O3)C21` (mixture of isomers), for which the melting point was 124 to 127 °C.

`O=C(c1c[nH]c(=O)[nH]1)c1ccco1` displayed a melting point of 318 to 321 °C.

`CC(C)(C)OC(=O)N1CCC(c2n[nH]c(-c3ccccn3)n2)CC1` yielded a melting point of 220 °C.

`COC(=O)C(Oc1ccc(Cl)cc1)c1ccc(Oc2cccc(C(F)(F)F)c2)cc1` (stereo not drawn): the melting point lay in the range of 79 to 82 °C.

Regarding `CCn1c(Cl)nc2ccccc21`, the melting point was 48 to 50 °C.

As for `COC(=O)c1cc(N=C=S)c(C)cc1OC`, the melting point was 86 to 87.5 °C.

Compound `CCCCc1nc(C(C)(C)O)c(C(=O)O)n1Cc1ccc(-c2ccccc2-c2nnn[nH]2)cc1` came in with a melting point of 138 to 141 °C.

In turn, `NS(=O)(=O)c1ccc(-c2c(-c3ccccc3)noc2Cl)cc1` registered a melting point of 186 to 187 °C.

Turning to `OCC1CCC(c2ccccc2)CC1` (stereo not drawn), the melting point was in the range of 47.3 to 48.5 °C.

In turn, `O=C1c2ccsc2CCN1Cc1ccccc1` returned a melting point of 54 °C.

Compound `O=C(NCCc1ccccc1)c1ccccc1-c1ccccc1CN1C(=O)c2ccccc2C1=O` gave a melting point of 156 °C.

For the compound `COc1ccc2c(c1)C(=O)N(c1ccc3c(c1)CCCN3C)C2`, the melting point was 123 to 127 °C.

`COc1cccc(CNC(=O)c2ccc(CCl)cc2)c1`: the melting point lay within 108 to 110 °C.

One may read the melting point as the temperature of the solid-liquid transition.
